Experimental data as given in PubChem BioAssay AID2060910 (Molecular Pharmacology Branch, DTP, NCI, 2025).

Test system: 242566-281-R-J2-PDC complex spheroid viability
Experiment: Anticancer human tumor 242566-281-R-J2-PDC patient-derived pancreatic carcinoma cell line growth inhibition [RAS]
Settings: for IC50: curve of first compound; for viability, T/C: stronger effect = lower value
Text: RAS pathway inhibitors in Combinations in Complex Spheroids
A high-throughput screen of multi-cell type tumor spheroids was designed to identify active combinations of RAS pathway inhibitors and targeted small molecules. Complex spheroids include a stromal component modeled by human endothelial cells (HUVEC) and fibroblasts modeled by human mesenchymal stem cells (MSCs). The concentration ranges selected for each drug and investigational agent were based upon clinically achievable concentrations if the clinical Cmax of the agent was known.
Compounds. The drugs and investigational agents: abemaciclib (NSC768073), cobimetinib (NSC768068), divarasib (GDC6063, NSC841802), docetaxel (NSC628503), GDC-1971 (RLY-1971, NSC841576), gemcitabine (NSC613327), inavolisib (NSC800729), ipatasertib (NSC767898), KB-0742 (NSC834161), MRTX-1133 (NSC836407), osimertinib (NSC779217), RMC-4630 (NSC839698), RMC-6236 (NSC851965), RMC-6291 (NSC852671), Ro-3306 (NSC812927), sapanisertib (NSC764658), SN-38 (NSC673596), staurosporine (NSC755774), SY5609 (NSC837396), and tovorafenib (DAY101, NSC766906), were obtained from the National Cancer Institute (NCI) Developmental Therapeutics Program Chemical Repository. The FDA-approved anticancer drug set is available from the NCI Developmental Therapeutics Program. […] The stock solutions were prepared in dimethyl sulfoxide (DMSO, Sigma-Aldrich, St. Louis, MO, cat. D2650) at 800-fold the tested concentration and stored at -70 degrees C prior to their use. All drugs and investigational agents were tested over a range starting from a high concentration at or near the clinical Cmax and decreasing in half-log increments. If the clinical Cmax for an agent had not been determined, the highest concentration tested was 10 microM.
Cell Culture. All cells were maintained in an incubator at 37 degrees C and 5% CO2 with 95% humidity. The PDC lines were cultured according to standard operating procedures established by the NCI PDMR. All PDCs were thawed and cultured in Matrigel-coated flasks prepared with a working solution of 1X Ham's F-12 nutrient mix, without supplementation (Invitrogen, Waltham, MA, cat. 11765054), 100 U/mL penicillin-streptomycin (Invitrogen, cat. 15140122), and 2.5% Matrigel (Corning Inc., Corning, NY, cat. 354248) for the first three passages. The 362531-283-R-J2-PDC and 782815-120-R-J1-PDC lines were cultured in 6C/Colon 1B media, which includes advanced DMEM/F-12 (Thermo Fisher Scientific, cat. 12634028), 10 mM HEPES (Thermo Fisher Scientific, cat. 15630080), 1X GlutaMAX supplement (Thermo Fisher Scientific, cat. 35050061), 0.1 mg/mL primocin (InvivoGen, San Diego, CA, cat. ant-pm-2), 10% defined fetal bovine serum, heat inactivated (HyClone Laboratories Inc., Logan, UT, cat. SH30070.03HI), 50% L-WRN conditioned media (ATCC, cat. CRL-3276), 1.25 mM N-Acetyl-L-cysteine (Sigma-Aldrich, cat. A9165), 10 mM nicotinamide (Sigma-Aldrich, cat. N0636), 1X B-27 supplement (Thermo Fisher Scientific, cat. 17504044), 1X N-2 supplement (Thermo Fisher Scientific, cat. 17502048), 50 ng/mL human EGF (Thermo Fisher Scientific, cat. PHG0311), and 10 microM Y-27632 dihydrochloride (Tocris Bioscience, cat. 1254). The K12877-001-R-J1-PDC line was cultured in 6I media, which includes all 6C/Colon 1B media plus 10 ng/mL human FGF-10 (PeproTech, cat. 100-26), 1 ng/mL human FGF-2 (PeproTech, cat. 100-18B), 1 µM prostaglandin E2 (Tocris Bioscience, cat. 2296), […] hydrocortisone (Sigma-Aldrich, cat. H4001), and […] bovine insulin (Sigma-Aldrich, cat. I6634). The K86415-001-R-J1-PDC line was cultured in 6D media, which includes all 6C/Colon 1B media components minus the L-WRN conditioned media. The 485176-168-R4-J1-PDC was cultured in PANC media, which includes all 6C/Colon 1B media plus 100 ng/mL human FGF-10 (PeproTech, cat. 100-26), 500 nM SB-431542 (Selleckchem, cat. S1067), and 10 nM gastrin (Tocris Bioscience, cat. 3006). […]
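Note: spheroids exposed to compound for 7 days before readout.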
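Throughout, for viability, T/C: 100% = DMSO vehicle control wells.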

**Q.** What does the source list for `CC1(O)CCCC1n1c(=O)c(C(F)F)cc2cnc(NC3CCN(S(C)(=O)=O)CC3)nc21` (configuration not stated) + C=CC(=O)N1CCN(c2nc(OCC3CCCN3C)nc3c(F)c(-c4nc(N)cc(C)c4C(F)(F)F)c(Cl)cc23)C(C)C1?
**A.** IC50 (second compound 0.00316 µM): > 10 µM; IC50 (second compound 0.01 µM): > 10 µM; IC50 (second compound 0.0316 µM): > 10 µM; IC50 (second compound 0.1 µM): > 10 µM; IC50 (second compound 0.316 µM): > 10 µM; IC50 (second compound 1 µM): 9.01 µM; viability, T/C (second compound 0.00316 µM, first compound 0.0316 µM): 86.6%; viability, T/C (second compound 0.00316 µM, first compound 0.1 µM): 108%; viability, T/C (second compound 0.00316 µM, first compound 0.316 µM): 83.9%; viability, T/C (second compound 0.00316 µM, first compound 1 µM): 108%; viability, T/C (second compound 0.00316 µM, first compound 3.16 µM): 112%; viability, T/C (second compound 0.00316 µM, first compound 10 µM): 72.7%; viability, T/C (second compound 0.01 µM, first compound 0.0316 µM): 99%; viability, T/C (second compound 0.01 µM, first compound 0.1 µM): 113%; viability, T/C (second compound 0.01 µM, first compound 0.316 µM): 106%; viability, T/C (second compound 0.01 µM, first compound 1 µM): 99.5%; viability, T/C (second compound 0.01 µM, first compound 3.16 µM): 123%; viability, T/C (second compound 0.01 µM, first compound 10 µM): 68.9%; viability, T/C (second compound 0.0316 µM, first compound 0.0316 µM): 94.7%; viability, T/C (second compound 0.0316 µM, first compound 0.1 µM): 106%; viability, T/C (second compound 0.0316 µM, first compound 0.316 µM): 108%; viability, T/C (second compound 0.0316 µM, first compound 1 µM): 132%; viability, T/C (second compound 0.0316 µM, first compound 3.16 µM): 115%; viability, T/C (second compound 0.0316 µM, first compound 10 µM): 66.6%; viability, T/C (second compound 0.1 µM, first compound 0.0316 µM): 96.3%; viability, T/C (second compound 0.1 µM, first compound 0.1 µM): 104%; viability, T/C (second compound 0.1 µM, first compound 0.316 µM): 97.9%; viability, T/C (second compound 0.1 µM, first compound 1 µM): 106%; viability, T/C (second compound 0.1 µM, first compound 3.16 µM): 112%; viability, T/C (second compound 0.1 µM, first compound 10 µM): 68.2%; viability, T/C (second compound 0.316 µM, first compound 0.0316 µM): 96.5%; viability, T/C (second compound 0.316 µM, first compound 0.1 µM): 108%; viability, T/C (second compound 0.316 µM, first compound 0.316 µM): 89.5%; viability, T/C (second compound 0.316 µM, first compound 1 µM): 116%; viability, T/C (second compound 0.316 µM, first compound 3.16 µM): 139%; viability, T/C (second compound 0.316 µM, first compound 10 µM): 64.5%; viability, T/C (second compound 1 µM, first compound 0.0316 µM): 92.1%; viability, T/C (second compound 1 µM, first compound 0.1 µM): 126%; viability, T/C (second compound 1 µM, first compound 0.316 µM): 110%; viability, T/C (second compound 1 µM, first compound 1 µM): 98.1%; viability, T/C (second compound 1 µM, first compound 3.16 µM): 112%; viability, T/C (second compound 1 µM, first compound 10 µM): 44.2%
